Results from patent US20240261288A1, “COMBINATION OF A 3-(IMIDAZOL-4-YL)-4-(AMINO)-BENZENES[…] INHIBITOR WITH AN EGFR INHIBITOR AND/OR MEK INHIBITOR FOR USE IN THE TREATMENT OF LUNG CANCER” (lkena Oncology, Inc., priority 2021, published 2024).

Assays:
[1] = test system: A549 human lung cancer xenografts; experiment: A549 KRAS G12S mutant lung cancer xenograft mouse model, tumor growth; assay type: in vivo, female Nu/Nu mice; settings: T-A-32 PO 75 mg/kg QD in combination with trametinib 1.0 mg/kg; Day 25; vs vehicle control; p<0.0001
Experimental: (§1) This study determined the in vivo antitumor activity of T-A-32 administered in combination with trametinib, a MEK inhibitor. This combination was tested in immunodeficient nude mice (Nu/Nu) bearing A549 human lung cancer xenografts. A549 was chosen as a xenograft model because A549 cells harbor the KRAS G12S mutation.
(§2) Six- to eight-week-old female Nu/Nu mice were inoculated subcutaneously with 5×10^6 A549 human lung cancer cells in the right flank. Tumor growth was monitored twice per week using vernier calipers and the mean tumor volume (MTV) was calculated. When the MTV reached approximately 150-200 mm^3, approximately eight (8) days after cell inoculation, animals were randomized into treatment groups (n=8/group) and dosed orally (PO) with either vehicle control (5% DMSO+95% PEG 400 (Vehicle 1)+0.5% hydroxypropyl methyl cellulose and 0.2% Tween-80 (Vehicle 2)) or T-A-32 at 75 mg/kg, or trametinib at 1.0 mg/kg once per day (PO) for twenty-five (25) days.
Tumor size and body weight were measured twice per week, and all treatments ended on day 25. Percent TGI was calculated on Day 25 when the control MTV reached the maximum allowable tumor volume. The mean maximum body weight change was determined for each group.

[2] = test system: H1975 human non-small cell lung xenografts; experiment: H1975 EGFR mutant lung cancer xenograft mouse model, tumor growth; assay type: in vivo, female Nu/Nu mice; settings: for TGI (tumor growth inhibition): Day 18, vs vehicle control, p<0.001
Experimental: This study determined the in vivo antitumor activity of T-A-32 administered in combination with osimertinib, an EGFR inhibitor and trametinib, a MEK inhibitor. This combination was tested in immunodeficient nude mice (Nu/Nu) bearing H1975 human non-small cell lung xenografts. H1975 was chosen as a xenograft model because H1975 harbors EGFR T790M/[…]L858R mutations. T970M is well known point mutation for osimertinib resistance and L858R is also known EGFR activation mutation.
Six- to 9-week-old female Nu/Nu mice were inoculated SC with 2×10^6 H1975 human non-small cell lung tumor cells in the right flank. Tumor growth was monitored twice per week using vernier calipers and the mean tumor volume (MTV) was calculated. When the MTV reached approximately 177 mm^3, animals were randomized into treatment groups (n=10/group) and dosed orally (PO) with either vehicle control (5% DMSO+95% PEG 400 (Vehicle 1)+0.5% hydroxypropyl methyl cellulose and 0.2% Tween-80 (Vehicle 2)+1% Tween 80 (Vehicle 3)) or T-A-32 at 75 mg/kg, osimertinib at 2.5 mg/kg, or trametinib at 1 mg/kg QD for 18 days.
(§3) Treatments started on Day 0, tumor size and body weight were measured twice per week, and the study was terminated when the vehicle control tumors reached a mean of approximately 1600 mm^3. Percent TGI was calculated on Day 18 when the control MTV reached the maximum allowable tumor volume. The mean maximum body weight change was determined for each group.

[3] = test system: HCT-116 human colorectal carcinoma xenografts; experiment: HCT116 KRAS G13D mutant colorectal carcinoma xenograft mouse model, tumor growth; assay type: in vivo, female Nu/Nu mice; settings: T-A-32 PO 75 mg/kg QD in combination with trametinib 0.5 mg/kg; Day 14; vs vehicle control; p<0.0001
Experimental: This study determined the in vivo antitumor activity of T-A-32 administered in combination with trametinib, a MEK inhibitor. This combination was tested in immunodeficient nude mice (Nu/Nu) bearing HCT-116 human colorectal carcinoma xenografts. HCT116 was chosen as a xenograft model because HCT116 harbors a the KRAS G13D mutation.
as §2, with “1×10^6 HCT116” for “5×10^6 A549”, “colorectal carcinoma tumor” for “lung cancer”, “ten (10)” for “eight (8)”, “(n=10/group)” for “(n=8/group)”, “0.5” for “1.0”, “fourteen (14)” for “twenty-five (25)”
as §3, with “Tumor” for “Treatments started on Day 0, tumor”, “twice,” for “twice per week,”, “2000” for “1600”, “14” for “18”

[4] = test system: LoVo human colorectal adenocarcinoma xenografts; experiment: LoVo KRAS G12D mutant colorectal adenocarcinoma xenograft mouse model, tumor growth; assay type: in vivo, female Nu/Nu mice; settings: T-A-32 PO 75 mg/kg QD in combination with trametinib 1.0 mg/kg; Day 28; vs vehicle control; p<0.0001
Experimental: as §1, with “LoVo” for “A549”, “colorectal adenocarcinoma” for “lung cancer”, “G12D” for “G12S”
as §2, with “LoVo” for “A549”, “colorectal adenocarcinoma” for “lung cancer”, “(n=10/group)” for “(n=8/group)”, “twenty-eight (28)” for “twenty-five (25)”
Tumor size and body weight were measured twice per week, and all treatments ended on day 28. Percent TGI was calculated on Day 28 when the control MTV reached the maximum allowable tumor volume. The mean maximum body weight change was determined for each group.

[5] = test system: Calu 1 cells (KRAS mutant); experiment: Apoptosis induction, caspase-3/7 activation (Incucyte live-cell imaging); assay type: cell-based; settings: T-A-32 in combination with trametinib, compared with either single agent treatment alone
From the text: (§4) This study determined the ability of T-A-32 to enhance apoptosis in combination with osimertinib and trametinib in epidermal growth factor receptor (EGFR) mutant cell lines, and in combination with trametinib in Kirsten rat sarcoma viral oncogene (KRAS) or v raf murine sarcoma viral oncogene homolog B (BRAF) mutant cancer cell lines.
(§5) Three EGFR mutant cell lines (HCC4006, HCC827, and NCI-H1975), 5 KRAS mutant cell lines (A549, HCT116, Capan-2, Calu-1, and LoVo), and 1 BRAF mutant cell line (A2058) from multiple cancer indications were tested. The EGFR mutant cell lines were treated with single agent T-A-32, osimertinib (an EGFR inhibitor), or trametinib (a mitogen-activated protein kinase kinase [MEK] inhibitor); a dual combination of osimertinib and trametinib; or a triple combination of T-A-32, osimertinib, and trametinib in a 96-well plate format. The KRAS and BRAF mutant cell lines were treated with single agent T-A-32 or trametinib, or a dual combination of T-A-32 and trametinib in a 96-well plate format. Apoptosis induction was assessed by monitoring the activation of caspase-3/7 using a probe that generates bright green fluorescence upon DEVD peptide cleavage by activated caspase-3/7 as an early indicator of apoptosis every 2 hours for approximately 96 hours.
(§6) All cell lines were cultured in the recommended medium supplemented with 10% fetal bovine serum (FBS) at 37° C. in a humidified atmosphere containing 5% CO2 until they were at least 80% confluent as follows: • HCC4006, HCC827, and NCI-H1975 cells in Roswell Park Memorial Institute 1640+10% FBS • A2058 cells in Dulbecco's Modified Eagle Medium+10% FBS • HCT-116, Capan-2, and Calu-1 cells in McCoy's 5A+10% FBS • LoVo and A549 cells in F 12K+10% FBS
(§7) Cells were trypsinized, counted by an automated cell counter, and added to all wells of a 96-well plate at 3000 cells/well in 100 μL of the appropriate medium (1 plate for each cell line). The next day, compounds were diluted in DMSO to 1000× concentration. CELLEVENT Caspase-3/7 Green READYPROBE Reagent was prepared as per manufacturer's instructions by adding 1 drop of READYPROBE reagent into 1 mL of the appropriate medium. Compounds were diluted in the READYPROBE/medium mixture to 3× concentration and 50 μL were added to the cells. The plates were subsequently scanned every 2 hours using an Incucyte S3 Live-Cell Analysis System (Sartorius) for a total of 72 to 136 hours depending on the cell line. Plates were maintained at 37° C. in a humidified atmosphere containing 5% CO2 over the course of experiment.

[6] = test system: Capan 2 cells (KRAS mutant); experiment: as above; assay type: cell-based; settings: T-A-32 in combination with trametinib, compared with either single agent treatment alone
From the text: as §4, §5, §6, §7

[7] = test system: HCC827 cells (EGFR mutant NSCLC); experiment: as above; assay type: cell-based; settings: triple combination of T-A-32, osimertinib, and trametinib, compared with the 3 single agent treatments and the dual combination of osimertinib and trametinib
From the text: as §4, §5, §6, §7

[8] = test system: A2058 cells (BRAF mutant); experiment: as above; assay type: cell-based; settings: T-A-32 in combination with trametinib, compared with either single agent treatment alone
From the text: as §4, §5, §6, §7

[9] = test system: HCC4006 cells (EGFR mutant NSCLC); experiment: as above; assay type: cell-based; settings: triple combination of T-A-32, osimertinib, and trametinib, compared with the 3 single agent treatments and the dual combination of osimertinib and trametinib
From the text: as §4, §5, §6, §7

[10] = test system: HCT-116 cells (KRAS mutant); experiment: as above; assay type: cell-based, human; settings: T-A-32 in combination with trametinib, compared with either single agent treatment alone
From the text: as §4, §5, §6, §7

[11] = test system: NCI-H1975 cells (EGFR mutant NSCLC); experiment: as above; assay type: cell-based, human; settings: triple combination of T-A-32, osimertinib, and trametinib, compared with the 3 single agent treatments and the dual combination of osimertinib and trametinib
From the text: as §4, §5, §6, §7

A549 cells (KRAS mutant) = experiment: as above; assay type: cell-based, human; settings: T-A-32 in combination with trametinib, compared with either single agent treatment alone
From the text: as §4, §5, §6, §7

LoVo cells (KRAS mutant) = experiment: as above; assay type: cell-based, human; settings: T-A-32 in combination with trametinib, compared with either single agent treatment alone
From the text: as §4, §5, §6, §7

Row | Structure (SMILES) | TGI (tumor growth inhibition) [1] [%] | TGI (tumor growth inhibition) ([2]; T-A-32 PO 75 mg/kg QD in combination with osimertinib (2.5 mg/kg)) [%] | TGI (tumor growth inhibition) ([2]; T-A-32 in combination with both trametinib and osimertinib, PO QD) [%] | tumor regression ([2]; triple combination of T-A-32, osimertinib, and trametinib, H1975 xenograft) | TGI (tumor growth inhibition) [3] [%] | TGI (tumor growth inhibition) [4] [%] | apoptosis (caspase-3/7 activation) [5] | apoptosis (caspase-3/7 activation) [6] | apoptosis (caspase-3/7 activation) [7] | apoptosis (caspase-3/7 activation) [8] | apoptosis (caspase-3/7 activation) [9] | apoptosis (caspase-3/7 activation) [10] | apoptosis (caspase-3/7 activation) [11] | apoptosis (caspase-3/7 activation) (A549 cells (KRAS mutant)) | apoptosis (caspase-3/7 activation) (LoVo cells (KRAS mutant)) | TGI (tumor growth inhibition) ([2]; trametinib 1 mg/kg in combination with osimertinib 2.5 mg/kg, PO QD) [%]
1 | CNS(=O)(=O)c1ccc(NCc2ccc(C(F)(F)F)cc2)c(-c2cn(C)cn2)c1 [T-A-32, N-methyl-3-(1-methyl-1H-imidazol-4-yl)-4-((4-(trifluoromethyl)benzyl)amino)benzenesulfonamide] | 83 | 88 | 99 | complete regressions | 78 | 75 | enhanced apoptosis | enhanced apoptosis | enhanced apoptosis | enhanced apoptosis | enhanced apoptosis | enhanced apoptosis | enhanced apoptosis | enhanced apoptosis | enhanced apoptosis | –
2 | CC(=O)Nc1cccc(-n2c(=O)n(C3CC3)c(=O)c3c(Nc4ccc(I)cc4F)n(C)c(=O)c(C)c32)c1 [trametinib, reference compound] | – | – | – | – | – | – | – | – | – | – | – | – | – | – | – | 71
